Source: US6906205B2, “Spiro and dispiro 1,2,4-trioxolane antimalarials” (Medicines for Malaria Venture MMV, priority 2002, dated 2005)
Converted amounts (≈) assume the structure as drawn.

Assays:
[1] = test system: P. falciparum K1 strain (Thailand resistant to chloroquine); experiment: semiautomated microdilution assay, [3H]-hypoxanthine incorporation, K1 strain; format: cell-based, Plasmodium falciparum; conditions: K1 strain, 72 h incubation; for IC50: Plasmodium falciparum, read-out: IC50 (ng/ml) K1
Procedure, shortened: (§1)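 Intraerythrocytic stages from unsynchronised stock cultures are exposed to test compounds in a semiautomated microdilution format, and fifty percent inhibitory concentrations are then fitted by logit regression.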

[2] = test system: ANKA strain of P. berghei; experiment: single dose STI in vivo screen in infected mice; design: species or system Plasmodium berghei; conditions: for Activity (%) po / Activity (%) sc / Activity (%) 3 mg/kg SSV po / Activity (%) 10 mg/kg SSV po / Activity (%) SSVpo: percent reduction in parasitemia day 3 post-infection; for Activity (%) po / Survival (days) po: single 10 mg/kg po in 3% ethanol and 7% Tween 80; for Activity (%) po / Activity (%) sc / Activity (%) SSVpo: mice; for Activity (%) sc / Survival (days) sc: single 10 mg/kg sc in 3% ethanol and 7% Tween 80; for Survival (days) po / Survival (days) sc / Survival (days) SSVpo: untreated control 5.6 ± 0.3; for Activity (%) 10 mg/kg SSV po / Survival (days) 10 mg/kg SSV po: single 10 mg/kg po in SSV; for Activity (%) SSVpo: single po dose in standard suspending vehicle (SSV); for Survival (days) SSVpo: single po dose in SSV
Procedure, shortened: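 Groups of 3-5 Moro SPF or NMRI mice infected with the ANKA strain of P. berghei received a single dose of trioxolane on day one post-infection. The compound was given in 3% ethanol and 7% Tween 80 or in SSV (0.5% w/v CMC, 0.5% v/v benzyl alcohol, 0.4% v/v Tween 80, 0.9% w/v sodium chloride in water). Antimalarial activity was scored as percent reduction in parasitemia on day three and as survival time versus untreated controls. Survival to day 30 counted as cure.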

[3] = test system: P. falciparum NF54 strain (sensitive to standard antimalarials); experiment: semiautomated microdilution assay, [3H]-hypoxanthine incorporation, NF54 strain; format: cell-based, Plasmodium falciparum; conditions: NF54 strain, 72 h incubation; for IC50: Plasmodium falciparum, read-out: IC50 (ng/ml) NF54
Procedure, shortened: as §1

Compound | IC50 (ng/ml) K1 [1] | Activity (%) po [2] | Activity (%) sc [2] | Survival (days) po [2] | Survival (days) sc [2] | IC50 (ng/ml) NF54 [3] | Activity (%) 3 mg/kg SSV po ([2]; single 3 mg/kg po in SSV) [%] | Activity (%) 10 mg/kg SSV po [2] [%] | Survival (days) 3 mg/kg SSV po ([2]; single 3 mg/kg po in SSV) [days] | Survival (days) 10 mg/kg SSV po [2] [days] | Activity (%) SSVpo [2] [%] | Survival (days) SSVpo [2] [days] | IC50 [1] [ng/mL] | IC50 [3] [ng/mL]
O=S(=O)([O-])OC1CCC2(CC1)OOC1(O2)C2CC3CC(C2)CC1C3.[Na+] (stereo not shown) [OZ65] | 57 ng/mL | 0% | 1% | 5.0/NA/5.0 days | 5.0/NA/5.0 days | 65 ng/mL |  |  |  |  |  |  |  | 
NC(=O)[C@@H]1CCCN1C(=O)C[C@H]1CC[C@]2(CC1)OO[C@]1(O2)C2CC3CC(C2)CC1C3 [OZ346] | 3.8 ng/mL (≈ 9.08 nM) |  |  |  |  | 4.7 ng/mL (≈ 11.2 nM) | 51 | 85 | 7.6 | 8.8 |  |  |  | 
CCS(=O)(=O)CCN1CCC2(CC1)OOC1(O2)C2CC3CC(C2)CC1C3 (stereo not shown) [OZ200] | 1.0 ng/mL (≈ 2.59 nM) | 81% | 92% | 7.0 days | 8.0 days | 2.9 ng/mL (≈ 7.52 nM) |  |  |  |  | 78 | 7.3 |  | 
Cc1ccc(S(=O)(=O)N2CCC3(CC2)OOC2(O3)C3CC4CC(C3)CC2C4)cc1 (stereo not shown) [OZ51] | 2.5/2.5 ng/ml | 89% | 100% | 7.0 days | 14 days | 2.5/2.5 ng/ml |  |  |  |  |  |  |  | 
Fc1ccc(C2(c3ccc(F)cc3)OOC3(CCC(c4ccccc4)CC3)O2)cc1 (stereo not shown) [OZ66] | 44 ng/mL (≈ 108 nM) | 0/NA/0% | 0/NA/0% | 5.3 days | 5.7 days | 36 ng/mL (≈ 88.1 nM) |  |  |  |  |  |  |  | 
O=C1CCC2(CCO1)OOC1(O2)C2CC3CC(C2)CC1C3 (stereo not shown) [OZ17] |  | 0% | 18% | 5.3 days | 6.3 days |  |  |  |  |  |  |  | 85 (≈ 289 nM) | > 100
O=C1CC2CC(C1)CC1(C2)OOC2(O1)C1CC3CC(C1)CC2C3 (stereo not shown) [OZ13] | 0.40 ng/mL (≈ 1.26 nM) | 56% | 99.7% | 6.7 days | 9.7 days | 0.50 ng/mL (≈ 1.57 nM) |  |  |  |  |  |  |  | 
CCN(CC)C(=O)C1CCC2(CC1)OOC1(O2)C2CC3CC(C2)CC1C3 (stereo not shown) [OZ73] | 6.5 ng/mL (≈ 17.9 nM) | 27% | 36% | 6.0 days | 6.7 days | 8.2 ng/mL (≈ 22.6 nM) |  |  |  |  |  |  |  | 
O=C(C[C@H]1CC[C@]2(CC1)OOC1(O2)C2CC3CC(C2)CC1C3)N1CCN(c2ccccc2)CC1 (stereo partly shown) [OZ244] | 4.0 ng/mL (≈ 8.57 nM) | 6% | 18% | 5.7 days | 6.3 days | 4.2 ng/mL (≈ 9 nM) |  |  |  |  | 0 | 5.3 |  | 
NC(=O)C[C@H]1CC[C@]2(CC1)OOC1(O2)C2CC3CC(C2)CC1C3 (stereo partly shown) [OZ243] | 0.91 ng/mL (≈ 2.83 nM) | 87% | 70% | 7.3 days | 6.3 days | 1.1 ng/mL (≈ 3.42 nM) |  |  |  |  | 97 | 8.7 |  | 
O=C(O)C1(c2ccccc2)CCC2(CC1)OOC1(O2)C2CC3CC(C2)CC1C3 (stereo not shown) [OZ99] | 77 ng/mL (≈ 200 nM) | 30% | 36% | 6.3 days | 6.3 days | 27 ng/mL (≈ 70.2 nM) |  |  |  |  | 40 | 5.7 |  | 
CC(C)(C)NC(=O)N[C@H]1CC[C@]2(CC1)OOC1(O2)C2CC3CC(C2)CC1C3 (stereo partly shown) [OZ222] | 3.9 ng/mL (≈ 10.3 nM) | 87% | 99.76% | 7.7 days | 10.0 days | 6.3 ng/mL (≈ 16.6 nM) |  |  |  |  | 75 | 7.0 |  | 
CC(=O)Nc1ccc(S(=O)(=O)N2CCC3(CC2)OOC2(O3)C3CC4CC(C3)CC2C4)cc1 (stereo not shown) [OZ104] | 1.4 ng/mL (≈ 3.03 nM) | 56% | 99.98% | 6.3 days | 12.0 days | 0.50 ng/mL (≈ 1.08 nM) |  |  |  |  | 0 | 5.7 |  | 
O=C(O)c1ccc(C[C@H]2CC[C@]3(CC2)OOC2(O3)C3CC4CC(C3)CC2C4)cc1 (stereo partly shown) [OZ214] | >10/>10 ng/ml | 44% | 65% | 6.3 days | 7.7 days | >10/>10 ng/ml |  |  |  |  | 54 | 7.3 |  | 
NC(=O)NC[C@H]1CC[C@]2(CC1)OOC1(O2)C2CC3CC(C2)CC1C3 (stereo partly shown) [OZ265] | 0.56 ng/mL (≈ 1.66 nM) | 99% | 99.67% | 13.0 days | 11.7 days | 1.6 ng/mL (≈ 4.76 nM) |  |  |  |  | 98 | 9.7 |  | 
COCC(=O)N(Cc1ccccc1)C1CCC2(CC1)OOC1(O2)C2CC3CC(C2)CC1C3 (stereo not shown) [OZ173] | 58 ng/mL (≈ 131 nM) | 15% | 80% | 7.0 days | 9.7 days | 32 ng/mL (≈ 72.5 nM) |  |  |  |  | 0 | 6.7 |  | 
NOC[C@H]1CC[C@]2(CC1)OO[C@]1(O2)C2CC3CC(C2)CC1C3 [OZ334] | 28 ng/mL (≈ 90.5 nM) |  |  |  |  | 20 ng/mL (≈ 64.6 nM) | 13 | 47 |  | 6.8 |  |  |  | 
O=C(CCl)N1CCC2(CC1)OOC1(O2)C2CC3CC(C2)CC1C3 (stereo not shown) [OZ87] | 3.6 ng/mL (≈ 10.5 nM) | 22% | 53% | 5.7 days | 6.0 days | 4.4 ng/mL (≈ 12.9 nM) |  |  |  |  |  |  |  | 
O=C(OC1CCC2(CC1)OOC1(O2)C2CC3CC(C2)CC1C3)c1ccccc1 (stereo not shown) [OZ74] | 2.3 ng/mL (≈ 5.98 nM) | 63% | 99.97% | 6.3 days | 10.0 days | 3.5 ng/mL (≈ 9.1 nM) |  |  |  |  |  |  |  | 
CCOC(=O)CC1CCC2(CC1)OOC1(O2)C2CC3CC(C2)CC1C3 (stereo not shown) [OZ61] |  | 91% | 96% | 7.0 days | 7.3 days |  |  |  |  |  |  |  | 0.52 (≈ 1.48 nM) | 0.53 (≈ 1.51 nM)
NC1(C(=O)NC[C@H]2CC[C@]3(CC2)OO[C@]2(O3)C3CC4CC(C3)CC2C4)CCCCC1 [OZ333] | 0.24 ng/mL (≈ 0.573 nM) |  |  |  |  | 0.44 ng/mL (≈ 1.05 nM) | 96 | 99.86 |  | 9.2 |  |  |  | 
